Data: patent US20240059747A1, “UBIQUITIN VARIANT WITH HIGH AFFINITY FOR BINDING 53BP1 REDUCES THE AMOUNT OF AAV NEEDED TO ACHIEVE HIGH RATES OF HDR” (Integrated DNA Technologies, Inc., priority 2022, published 2024)

What was measured:
[1] = system: HEK293 cells; experiment: percent HDR by EcoR1 cleavage assay, Cas9 RNP nucleofection with AAV donor, HEK293 cells; format: cell-based; conditions: for dose dependence of HDR benefit: AAV donor at MOI 20,000, doses up to 200 μM
Method: FIG. 1C depicts an exemplary heatmap showing the percent HDR at SERPINC1 in K562 cells with and without 50 uM CM1tf. […] The heatmaps show the percent HDR measured by EcoR1 cleavage assay with and without the use of CM1tf. Cas9 RNP (2 μM) was delivered with and without CM1tf into cells by Lonza nucleofection using 4 μM Alt-R Cas9 Electroporation Enhancer. AAV donor containing an EcoR1 cut site insert with 500 bp homology arms was added at a range of multiplicity of infection (MOIs) to cells for 24 hours following RNP delivery.
FIG. 2B depicts an exemplary heatmap showing the percent HDR at SERPINC1 in HEK293 cells with no enhancer, CM1tf, V2, or CM1tf+V2. […] Cas9 RNP was co-delivered with and without CM1tf into cells by Lonza nucleofection with 2 μM Cas9 RNP, 4 μM Alt-R Cas9 Electroporation Enhancer, and 0 or 25 uM CM1tf. AAV donor containing an EcoR1 cut site insert with 500 bp homology arms was added at a range of MOIs to cells for 24 hours following RNP delivery. V2 enhancer was added to media at a 1 uM final concentration for 24 hours following nucleofection.
The heatmaps show the percent HDR at STAT3 measured by EcoR1 cleavage assay with or without CM1tf. Cas9 RNP was co-delivered with and without CM1tf into cells by Lonza nucleofection with 2 μM Cas9 RNP, 4 μM Alt-R Cas9 Electroporation Enhancer, and 0 or 25 uM CM1tf. AAV donor containing 500 base pair (bp), 300 bp, or 100 bp homology arms was added at a range of MOIs to cells for 24 hours following RNP delivery.
Cas9 RNP was co-delivered with and without CM1tf into cells by Lonza nucleofection with 2 μM Cas9 RNP, 4 μM Alt-R Cas9 Electroporation Enhancer, and range of CM1tf concentrations from 200 μM to 6.25 μM. AAV donor containing an EcoR1 cut site insert with 500 bp homology arms was added at an MOI of 20,000 to cells for 24 hours following RNP delivery.
We developed at tag-free version of CM1 (CM1tf) and tested its ability to enhance HDR in cell lines using AAV donor (see Table 1). AAV-DJ, a synthetic AAV serotype most closely related to AAV-2 that is a chimera of type 2/type 8/ and type 9, was chosen for testing due to its high transduction efficiency in vitro for a broad range of cell types. The dose of CM1tf was held constant while a range of MOIs was used for the AAV donor. The AAV donor was constructed such that a 6 base pair insert consisting of an EcoR1 cut site (GAATTC) was flanked by 500 base pairs of homology arm matching the genomic sequence on either side of the target cut site. Briefly, Cas9 V3 protein (IDT) and Alt-R sgRNA (IDT) were mixed at a 1:1.2 ratio, incubated for 10 min, then Alt-R Cas9 electroporation enhancer (EE) (IDT), 1× PBS (Gibco), and CM1tf, diluted in 1× PBS, were added. HEK293 or K562 cells were washed and resuspended in SF buffer for Lonza Nucleofection and added to the RNP+DNA mix such that the final concentration of Cas9 RNP was 2 μM, EE was 4 μM, and CM1tf was 25 μM (HEK293 cells) or 50 μM (K562 cells). Cells plus RNP+DNA were electroporated using program DS-150 (HEK293 cells) or FF-120 (K562 cells) using the Lonza nucleofector system. Cells were then plated in 96 well plates at 20,000 cells/well and AAV was added to the wells at a range of MOI from 0 (no virus) to 160,000, with MOI being calculated as viral genomes (vg) per cell with vg calculated using qPCR. Cells were recovered and plated with serum free media, AAV was added, then serum containing media was added after four hours. Genomic DNA was isolated 48 hours after RNP delivery using QuickExtract (Lucigen).
In order to optimize HDR, it is often desirable to use a combination of HDR enhancers that work by different mechanisms to further boost HDR rates beyond what can be achieved by any single enhancer alone.

[2] = system: HDR; conditions: plasmid, AAV mediated gene delivery or mRNA delivery; double-stranded and single-stranded DNA donors; cited from earlier work
[3] = system: HDR; conditions: ssDNA donor; previous testing; cited from earlier work
[4] = system: 53BP1 foci; conditions: introduced into cells; cited from earlier work
[5] = system: K562 cells; experiment: percent HDR by EcoR1 cleavage assay, Cas9 RNP nucleofection with AAV donor, K562 cells; format: cell-based; conditions: 50 μM CM1tf, SERPINC1, AAV donor MOI range, FIG. 1C
Method: FIG. 1C depicts an exemplary heatmap showing the percent HDR at SERPINC1 in K562 cells with and without 50 uM CM1tf. In FIG. 1A-C, the ubiquitin variant CM1tf boosts HDR when delivered with Cas9 RNP when an AAV vector is used to deliver the donor template. The heatmaps show the percent HDR measured by EcoR1 cleavage assay with and without the use of CM1tf. Cas9 RNP (2 μM) was delivered with and without CM1tf into cells by Lonza nucleofection using 4 μM Alt-R Cas9 Electroporation Enhancer. AAV donor containing an EcoR1 cut site insert with 500 bp homology arms was added at a range of multiplicity of infection (MOIs) to cells for 24 hours following RNP delivery.
We developed at tag-free version of CM1 (CM1tf) and tested its ability to enhance HDR in cell lines using AAV donor (see Table 1). AAV-DJ, a synthetic AAV serotype most closely related to AAV-2 that is a chimera of type 2/type 8/ and type 9, was chosen for testing due to its high transduction efficiency in vitro for a broad range of cell types. The dose of CM1tf was held constant while a range of MOIs was used for the AAV donor. […] Cells were then plated in 96 well plates at 20,000 cells/well and AAV was added to the wells at a range of MOI from 0 (no virus) to 160,000, with MOI being calculated as viral genomes (vg) per cell with vg calculated using qPCR. […]

Substance | dose dependence of HDR benefit ([1]; FIG. 4) | rates of HDR [2] | benefit to HDR as a function of dose [3] | optimal concentration for HDR benefit [3] [µM] | formation of ionizing radiation induced 53BP1 foci [4] | boost of HDR [5] | improvement in HDR rates, single enhancers and combination ([1]; 25 uM CM1tf, 1 μM V2 enhancer in media for 24 hours, AAV donor MOI range, HPRT1 and SERPINC1, FIG. 2) | boost of HDR rates ([1]; 25 μM CM1tf, AAV-DJ donor with 500 bp homology arms, MOI 0 to 160,000, HPRT1 and SERPINC1, FIG. 1A-B) | HDR boost compared with i53 ([1]; AAV donor at MOI 20,000, doses 6.25 to 200 μM, FIG. 4) | less AAV needed to achieve the same level of editing as without enhancer ([1]; HEK293 cells, 25 μM CM1tf, AAV donor MOI range)
i53: ubiquitin variant inhibitor of 53BP1 (Canny et al.), SEQ ID NO: 1 | large performance increase going from 100 μM to 200 μM | improve the rates of HDR | decrease in benefit at 200 μM | 100 to 150 | inhibited the formation ionizing radiation induced 53BP1 foci |  |  |  |  | 
CM1tf: tag-free version of ubiquitin variant CM1, SEQ ID NO: 3; K6R, T7M, T12M, T14E, K33H, A46Q, S65P, L67K, H68M relative to i53 | slightly larger benefit to HDR with increasing dose |  |  |  |  | boosts HDR | approximately equivalent improvement in HDR rates | dramatically boosted HDR rates | continued to outperform i53 | approximately four-fold
